The values that follow come from patent US6541193B2, “Screening the activity of drugs for central nervous system (CNS)” (Council of Scientific & Industrial Research, priority 2001, dated 2003).

For this assay, the system named is Sh^5eag^1 mutant flies. Kind of assay: Recovery time from diethyl ether anesthesia in flies fed drug in food. In kind it is in vivo, Drosophila melanogaster. The following applies: Sh^5eag^1 males. As for the experimental part:
Standard Drosophila manipulation methods were followed. Cultures were grown on a medium containing maize powder, sugar, yeast and Nipagin. Flies were maintained and further manipulated at room temperature. Experimental conditions were kept identical. The double mutant Sh^5eag^1 was generated using standard methods of Drosophila genetics.
Equal number of Sh^5eag^1 males, varying in age between 6-9 days, were treated in 25×100 mm glass vials with either normal food (NF) or food containing 1 mg/ml of phenobarbital sodium (PS; NF+PS) for 5 days. Twenty males were treated in each vial. Flies were first anesthesized with ether and healthy looking individuals shifted to 10 empty vials in such a way that each vial received two flies, one from each treatment. Before shifting, flies from one of the two treatments were marked on their wings for the purpose of identification. Flies were allowed to recover fully. After an hour, each fly pair was subjected to the following test one by one. The two flies, inside a vial with 800 mg of cotton plug, were simultaneously anesthetized by pouring 0.2 ml of diethyl ether on to the plug. After about 1.5 min, during which the vial was gently shaken continuously so that the flies remained at the bottom throughout, the two individuals were immediately shifted to two fresh empty vials. Time at this point was considered 0 min. […]

With `CCC1(c2ccccc2)C(=O)NC(=O)NC1=O` [PS, phenobarbital sodium], the “effect on recovery from ether anesthesia” value (1 mg/ml in food for 5 days, vs normal food) is listed as “delays recovery from ether anesthesia”. The “recovery time (time to first stand up on legs after etherisation)” value (food containing 1 mg/ml for 5 days, diethyl ether anesthesia, NF control 2.4±0.44 min, p<0.02) was 7.2 ± 1.78 min.
